How the values were obtained:
[1] = target: T1, Gamma-aminobutyric acid receptor subunit rho-1 (Homo sapiens, UniProt P24046); test: Agonist activity at recombinant human GABA-A rho-1 receptor transiently expressed in human tsA201 cells assessed as GABA-induced maximum response incubated for 30 mins and measured up to 90 secs by FMP dye based FLIPR membrane potential blue assay relative to GABA; format: cell-based
[2] = target: T2, Gamma-aminobutyric acid receptor subunit alpha-5/beta-2/gamma-2 (Homo sapiens, UniProt P18507+P31644+P47870); test: Agonist activity at recombinant human GABA-A alpha5beta2gamma2S receptor transiently expressed in human tsA201 cells incubated for 30 mins and measured up to 90 secs by FMP dye based FLIPR membrane potential blue assay; format: cell-based
T2 sequence (P47870 whole entry): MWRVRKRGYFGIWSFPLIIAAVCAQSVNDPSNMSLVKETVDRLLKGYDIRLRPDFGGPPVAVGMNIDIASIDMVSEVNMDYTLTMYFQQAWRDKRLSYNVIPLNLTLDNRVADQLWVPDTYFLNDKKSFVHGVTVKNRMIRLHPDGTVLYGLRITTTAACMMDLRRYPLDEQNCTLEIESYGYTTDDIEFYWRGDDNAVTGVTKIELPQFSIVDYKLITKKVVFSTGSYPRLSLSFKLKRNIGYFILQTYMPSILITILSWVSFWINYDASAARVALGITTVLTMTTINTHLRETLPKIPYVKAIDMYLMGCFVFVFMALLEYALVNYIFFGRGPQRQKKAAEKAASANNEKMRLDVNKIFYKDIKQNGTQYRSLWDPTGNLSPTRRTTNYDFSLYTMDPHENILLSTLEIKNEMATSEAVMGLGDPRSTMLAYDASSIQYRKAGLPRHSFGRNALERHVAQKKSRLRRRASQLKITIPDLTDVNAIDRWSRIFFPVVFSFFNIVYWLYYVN
T2 sequence (P18507 whole entry): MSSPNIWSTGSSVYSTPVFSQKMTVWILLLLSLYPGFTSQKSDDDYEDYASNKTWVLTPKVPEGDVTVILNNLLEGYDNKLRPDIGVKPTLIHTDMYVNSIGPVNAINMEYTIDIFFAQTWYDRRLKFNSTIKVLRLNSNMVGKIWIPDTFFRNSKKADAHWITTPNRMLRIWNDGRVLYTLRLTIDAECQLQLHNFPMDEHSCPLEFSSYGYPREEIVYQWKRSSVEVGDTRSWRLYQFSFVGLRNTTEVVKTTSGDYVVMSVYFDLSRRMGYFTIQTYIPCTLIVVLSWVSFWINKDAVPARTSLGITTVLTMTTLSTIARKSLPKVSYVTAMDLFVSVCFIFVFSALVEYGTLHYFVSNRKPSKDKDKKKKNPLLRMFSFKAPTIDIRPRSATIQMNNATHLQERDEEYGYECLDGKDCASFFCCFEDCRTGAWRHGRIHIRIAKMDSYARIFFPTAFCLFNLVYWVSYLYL
T2 sequence (P31644 whole entry): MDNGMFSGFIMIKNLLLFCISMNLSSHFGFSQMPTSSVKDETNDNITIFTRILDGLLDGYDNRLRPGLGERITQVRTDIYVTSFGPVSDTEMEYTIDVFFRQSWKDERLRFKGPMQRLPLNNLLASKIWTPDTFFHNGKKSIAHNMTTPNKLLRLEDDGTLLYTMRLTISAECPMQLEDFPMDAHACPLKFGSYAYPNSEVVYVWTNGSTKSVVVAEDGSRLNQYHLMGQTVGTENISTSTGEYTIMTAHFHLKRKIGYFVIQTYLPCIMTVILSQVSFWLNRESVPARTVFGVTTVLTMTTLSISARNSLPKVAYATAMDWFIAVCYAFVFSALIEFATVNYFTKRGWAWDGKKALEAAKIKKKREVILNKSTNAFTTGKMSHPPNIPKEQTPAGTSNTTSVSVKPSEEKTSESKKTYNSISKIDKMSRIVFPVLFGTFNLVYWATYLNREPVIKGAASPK

cells = format: cell-based; conditions: Homo sapiens, tsA201, 0.5 h
[3] = target: GABA-A receptor; alpha-1/beta-2/gamma-2 (Homo sapiens) (UniProt P14867+P47870+P18507); test: Agonist activity at recombinant human GABA-A alpha1beta2gamma2S receptor transiently expressed in human tsA201 cells assessed as GABA-induced maximum response incubated for 30 mins and measured up to 90 secs by FMP dye based FLIPR membrane potential blue assay relative to GABA; format: cell-based
[4] = target: Gamma-aminobutyric acid receptor subunit alpha-4/beta-2/gamma-2 (Homo sapiens, UniProt P18507+P47870+P48169); test: Agonist activity at recombinant human GABA-A alpha4beta2gamma2S receptor transiently expressed in human tsA201 cells incubated for 30 mins and measured up to 90 secs by FMP dye based FLIPR membrane potential blue assay; format: cell-based
[5] = target: Gamma-aminobutyric acid receptor subunit alpha-4/beta-2/gamma-2 (Homo sapiens, UniProt P47870+P18507+P48169); test: Agonist activity at recombinant human GABA-A alpha4beta2gamma2S receptor transiently expressed in human tsA201 cells assessed as GABA-induced maximum response incubated for 30 mins and measured up to 90 secs by FMP dye based FLIPR membrane potential blue assay relative to GABA; format: cell-based
Homo sapiens = organism: Homo sapiens; test: Agonist activity at recombinant human GABA-A alpha3beta2gamma2S receptor transiently expressed in human tsA201 cells assessed as GABA-induced maximum response incubated for 30 mins and measured up to 90 secs by FMP dye based FLIPR membrane potential blue assay relative to GABA; format: cell-based
[6] = target: T1, Gamma-aminobutyric acid receptor subunit rho-1; test: Agonist activity at recombinant human GABA-A rho-1 receptor transiently expressed in human tsA201 cells incubated for 30 mins and measured up to 90 secs by FMP dye based FLIPR membrane potential blue assay; format: cell-based; conditions: read-out: EC50
[7] = target: GABA-A receptor; anion channel; test: Displacement of [3H]muscimol from GABA(A) receptor in Sprague-Dawley rat cortical synaptic membranes by liquid scintillation counting
[8] = target: T3, GABA-A receptor; alpha-1/beta-2/gamma-2 (Homo sapiens, UniProt P14867+P18507+P47870); test: Agonist activity at recombinant human GABA-A alpha1beta2gamma2S receptor transiently expressed in human tsA201 cells incubated for 30 mins and measured up to 90 secs by FMP dye based FLIPR membrane potential blue assay; format: cell-based
T3 sequence (P14867 whole entry): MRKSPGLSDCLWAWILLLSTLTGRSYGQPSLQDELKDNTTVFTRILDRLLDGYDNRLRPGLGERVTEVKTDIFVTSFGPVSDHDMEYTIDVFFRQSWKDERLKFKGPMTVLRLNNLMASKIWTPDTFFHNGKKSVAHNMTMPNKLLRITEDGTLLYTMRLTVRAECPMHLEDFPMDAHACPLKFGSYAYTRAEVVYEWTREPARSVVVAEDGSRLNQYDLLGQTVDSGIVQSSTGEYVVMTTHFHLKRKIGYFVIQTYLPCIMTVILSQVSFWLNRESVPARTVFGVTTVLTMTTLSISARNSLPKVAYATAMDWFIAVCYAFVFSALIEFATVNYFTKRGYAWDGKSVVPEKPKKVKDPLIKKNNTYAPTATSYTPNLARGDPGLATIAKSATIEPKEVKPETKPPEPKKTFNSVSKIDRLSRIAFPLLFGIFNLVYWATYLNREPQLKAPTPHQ
T3 sequence (P47870 whole entry): T2 sequence (P47870 whole entry)
T3 sequence (P18507 whole entry): T2 sequence (P18507 whole entry)

[9] = target: Gamma-aminobutyric acid receptor subunit alpha-5/beta-2/gamma-2 (Homo sapiens) (UniProt P47870+P18507+P31644); test: Agonist activity at recombinant human GABA-A alpha5beta2gamma2S receptor transiently expressed in human tsA201 cells assessed as GABA-induced maximum response incubated for 30 mins and measured up to 90 secs by FMP dye based FLIPR membrane potential blue assay relative to GABA; format: cell-based
[10] = target: T4, Sodium- and chloride-dependent GABA transporter 2 (Homo sapiens, UniProt Q9NSD5); test: Inhibition of human GAT2 expressed in Flp-In CHO cells assessed as reduction in [3H]GABA uptake incubated for 3 mins by liquid scintillation counting method; format: cell-based
T4 sequence (Q9NSD5 whole entry): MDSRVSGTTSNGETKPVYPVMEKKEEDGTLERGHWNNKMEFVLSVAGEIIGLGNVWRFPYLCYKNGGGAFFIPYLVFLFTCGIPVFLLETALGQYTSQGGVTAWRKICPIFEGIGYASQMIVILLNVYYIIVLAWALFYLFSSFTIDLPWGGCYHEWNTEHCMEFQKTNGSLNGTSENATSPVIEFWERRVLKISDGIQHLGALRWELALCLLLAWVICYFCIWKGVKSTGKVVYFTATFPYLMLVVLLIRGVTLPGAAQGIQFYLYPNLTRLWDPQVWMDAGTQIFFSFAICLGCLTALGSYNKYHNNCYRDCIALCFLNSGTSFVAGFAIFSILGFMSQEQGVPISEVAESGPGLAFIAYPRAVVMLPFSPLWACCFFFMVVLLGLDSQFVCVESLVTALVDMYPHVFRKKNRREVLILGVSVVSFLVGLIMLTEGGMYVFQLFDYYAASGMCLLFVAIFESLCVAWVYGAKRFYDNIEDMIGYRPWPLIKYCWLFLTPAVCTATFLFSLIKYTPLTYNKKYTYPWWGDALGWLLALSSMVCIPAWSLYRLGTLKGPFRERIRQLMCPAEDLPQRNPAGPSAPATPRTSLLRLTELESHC

[11] = target: T5, Sodium- and chloride-dependent GABA transporter 3 (Homo sapiens, UniProt P48066); test: Inhibition of human GAT3 expressed in Flp-In CHO cells assessed as reduction in [3H]GABA uptake incubated for 3 mins by liquid scintillation counting method; format: cell-based; conditions: read-out: IC50
T5 sequence (P48066 whole entry): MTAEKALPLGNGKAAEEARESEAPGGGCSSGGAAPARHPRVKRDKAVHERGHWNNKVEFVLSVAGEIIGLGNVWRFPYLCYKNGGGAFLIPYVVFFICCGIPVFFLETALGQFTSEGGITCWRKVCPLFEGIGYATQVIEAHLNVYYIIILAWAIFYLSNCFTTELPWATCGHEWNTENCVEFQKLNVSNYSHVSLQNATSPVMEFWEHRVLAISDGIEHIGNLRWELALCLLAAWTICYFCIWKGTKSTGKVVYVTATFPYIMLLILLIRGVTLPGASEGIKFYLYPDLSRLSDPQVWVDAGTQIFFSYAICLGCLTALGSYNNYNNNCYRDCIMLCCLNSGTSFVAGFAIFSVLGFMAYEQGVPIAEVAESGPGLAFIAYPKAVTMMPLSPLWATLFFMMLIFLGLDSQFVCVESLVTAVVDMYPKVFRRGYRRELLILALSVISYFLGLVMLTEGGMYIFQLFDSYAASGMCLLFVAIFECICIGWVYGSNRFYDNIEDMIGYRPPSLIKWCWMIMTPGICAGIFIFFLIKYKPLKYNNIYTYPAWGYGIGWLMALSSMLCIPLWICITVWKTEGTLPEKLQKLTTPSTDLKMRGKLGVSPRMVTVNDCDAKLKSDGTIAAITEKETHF

[12] = target: T6, Sodium- and chloride-dependent betaine transporter (Homo sapiens) (UniProt P48065); test: Inhibition of human BGT1 expressed in Flp-In CHO cells assessed as reduction in [3H]GABA uptake at 100 uM incubated for 3 mins by liquid scintillation counting method relative to control; format: cell-based
T6 sequence (whole entry): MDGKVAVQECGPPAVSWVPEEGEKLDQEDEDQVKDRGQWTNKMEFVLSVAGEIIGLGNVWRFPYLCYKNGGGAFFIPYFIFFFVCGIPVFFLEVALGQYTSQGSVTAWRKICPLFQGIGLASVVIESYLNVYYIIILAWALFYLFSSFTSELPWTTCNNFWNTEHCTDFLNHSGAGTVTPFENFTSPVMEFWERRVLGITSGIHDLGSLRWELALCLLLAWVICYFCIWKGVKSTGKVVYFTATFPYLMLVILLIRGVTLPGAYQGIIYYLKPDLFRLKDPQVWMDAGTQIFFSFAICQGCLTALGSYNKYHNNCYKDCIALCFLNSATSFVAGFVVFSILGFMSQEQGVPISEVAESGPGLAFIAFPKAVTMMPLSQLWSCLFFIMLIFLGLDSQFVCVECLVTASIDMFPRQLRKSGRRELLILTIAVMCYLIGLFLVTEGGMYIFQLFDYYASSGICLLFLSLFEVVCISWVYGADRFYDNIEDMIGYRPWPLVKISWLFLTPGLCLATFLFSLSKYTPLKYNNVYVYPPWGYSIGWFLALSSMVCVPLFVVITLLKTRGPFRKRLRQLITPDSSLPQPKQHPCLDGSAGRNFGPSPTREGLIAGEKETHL

[13] = target: T7, Sodium- and chloride-dependent GABA transporter 2 (Homo sapiens) (UniProt Q9NSD5); test: Inhibition of human GAT2 expressed in Flp-In CHO cells assessed as reduction in [3H]GABA uptake at 100 uM incubated for 3 mins by liquid scintillation counting method relative to control; format: cell-based
T7 sequence (whole entry): T4 sequence (Q9NSD5 whole entry)

[14] = target: T8, Sodium- and chloride-dependent GABA transporter 3 (Homo sapiens) (UniProt P48066); test: Inhibition of human GAT3 expressed in Flp-In CHO cells assessed as reduction in [3H]GABA uptake at 100 uM incubated for 3 mins by liquid scintillation counting method relative to control; format: cell-based
T8 sequence (whole entry): T5 sequence (P48066 whole entry)

[15] = target: Sodium- and chloride-dependent GABA transporter 1 (Homo sapiens, UniProt P30531); test: Inhibition of human GAT1 expressed in Flp-In CHO cells assessed as reduction in [3H]GABA uptake at 100 uM incubated for 3 mins by liquid scintillation counting method relative to control; format: cell-based
Sequence of Sodium- and chloride-dependent GABA transporter 1 (P30531 whole entry, looked up): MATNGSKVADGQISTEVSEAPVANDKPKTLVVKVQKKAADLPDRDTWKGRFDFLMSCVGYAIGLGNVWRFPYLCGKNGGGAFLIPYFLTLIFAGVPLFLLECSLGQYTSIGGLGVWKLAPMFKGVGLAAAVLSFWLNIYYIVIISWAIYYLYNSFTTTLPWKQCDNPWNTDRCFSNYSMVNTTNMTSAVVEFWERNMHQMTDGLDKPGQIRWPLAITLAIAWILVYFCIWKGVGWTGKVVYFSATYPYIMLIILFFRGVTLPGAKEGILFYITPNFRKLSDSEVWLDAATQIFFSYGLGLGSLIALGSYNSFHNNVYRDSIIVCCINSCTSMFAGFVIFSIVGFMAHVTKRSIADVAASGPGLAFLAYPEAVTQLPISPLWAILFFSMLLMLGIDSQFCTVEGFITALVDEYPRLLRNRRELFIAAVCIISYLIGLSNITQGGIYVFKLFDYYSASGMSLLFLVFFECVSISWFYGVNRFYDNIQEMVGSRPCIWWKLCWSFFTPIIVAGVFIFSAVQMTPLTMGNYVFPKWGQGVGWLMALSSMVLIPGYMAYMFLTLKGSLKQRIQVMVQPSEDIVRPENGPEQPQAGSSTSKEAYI

Sequence of Gamma-aminobutyric acid receptor subunit alpha-4/beta-2/gamma-2 (Homo sapiens, UniProt P18507+P47870+P48169) (P48169 whole entry, one chain of several): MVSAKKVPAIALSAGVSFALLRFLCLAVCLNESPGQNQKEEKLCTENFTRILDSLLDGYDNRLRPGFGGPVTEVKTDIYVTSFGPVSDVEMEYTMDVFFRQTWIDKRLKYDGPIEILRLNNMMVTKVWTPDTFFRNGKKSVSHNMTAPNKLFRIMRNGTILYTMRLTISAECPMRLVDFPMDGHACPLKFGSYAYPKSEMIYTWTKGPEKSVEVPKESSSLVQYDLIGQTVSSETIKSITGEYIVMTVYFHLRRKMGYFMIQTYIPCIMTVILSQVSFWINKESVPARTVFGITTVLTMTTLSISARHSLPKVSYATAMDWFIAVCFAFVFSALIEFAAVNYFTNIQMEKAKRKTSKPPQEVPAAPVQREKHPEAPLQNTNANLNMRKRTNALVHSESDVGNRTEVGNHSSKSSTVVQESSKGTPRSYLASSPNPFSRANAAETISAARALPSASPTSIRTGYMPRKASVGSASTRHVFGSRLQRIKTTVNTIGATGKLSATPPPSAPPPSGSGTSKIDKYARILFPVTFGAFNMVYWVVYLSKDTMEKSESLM
T1 sequence (P24046 whole entry): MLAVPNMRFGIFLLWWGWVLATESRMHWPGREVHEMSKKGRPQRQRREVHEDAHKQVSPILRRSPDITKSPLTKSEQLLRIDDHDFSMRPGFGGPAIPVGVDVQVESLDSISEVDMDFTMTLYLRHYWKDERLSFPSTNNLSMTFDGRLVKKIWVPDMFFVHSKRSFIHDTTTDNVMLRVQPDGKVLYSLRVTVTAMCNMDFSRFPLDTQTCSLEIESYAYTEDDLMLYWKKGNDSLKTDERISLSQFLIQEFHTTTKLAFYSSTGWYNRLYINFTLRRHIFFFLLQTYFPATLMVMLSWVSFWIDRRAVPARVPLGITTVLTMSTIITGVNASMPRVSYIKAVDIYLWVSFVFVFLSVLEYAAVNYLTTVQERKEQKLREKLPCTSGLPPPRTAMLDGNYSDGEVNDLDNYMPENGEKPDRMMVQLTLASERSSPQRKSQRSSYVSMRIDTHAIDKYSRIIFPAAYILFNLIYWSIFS

Rmax [1]	EC50 [2]	EC50 (cells; read-out: EC50)	EC50 (cells; read-out: pEC50 (converted))	Rmax [3]	EC50 ([4]; read-out: EC50)	Rmax [5]	EC50 [6]	Ki [7]	EC50 [8]	Rmax [9]	EC50 ([4]; read-out: pEC50 (converted))	IC50 [10]	IC50 [11]	inhibition [12]	inhibition [13]	inhibition [14]	inhibition [15]	SMILES	Rmax (Homo sapiens)
34%	560 nM	2400 nM	2340 nM	65%	8600 nM	53%	3700 nM	360 nM	12000 nM	103%								NC1=N[C@@H](CC(=O)O)CS1	102%
75%	120 nM	370 nM	372 nM	97%	590 nM	105%	5400 nM	59 nM	1500 nM	104%	5890 nM							NC1=N[C@H](CC(=O)O)CS1	98%
				100%								26000 nM	11000 nM					NCCCC(=O)O [GAMMA-AMINOBUTYRIC ACID]	
63%				69%		32%				97%				> 30%	> 30%	> 30%	> 30%	CC(C(=O)O)C1CSC(N)=N1 (stereo in doubt; l-10a)	83%

From ChEMBL document CHEMBL4396887, “Five-Membered N-Heterocyclic Scaffolds as Novel Amino Bioisosteres at γ-Aminobutyric Acid (GABA) Type A Receptors and GABA Transporters” (J Med Chem, 2019)
